This is an account of results in patent US11311523B2, “Pyridinone compound and use thereof” (KYUSHU UNIVERSITY, NATIONAL UNIVERSITY CORPORATION, priority 2015, dated 2022).

Test [1] concerns primary mouse embryonic fibroblasts (MEFs). Description: inhibition of ruffle formation after PDGF stimulation. Type of test: cell-based. The note with it: 1 hour pretreatment. From the text: Pharmacological Test 4 (Experiment on Inhibition of Ruffle Formation in Primary Mouse Embryonic Fibroblasts)
As disclosed in NPL 2, stimulation of primary mouse embryonic fibroblasts (MEFs) with a growth factor, such as PDGF, induces actin cytoskeletal remodeling, leading to the formation of two types of characteristic cellular membrane structures, peripheral ruffles and dorsal ruffles.
The peripheral ruffle and dorsal ruffle formation depends on Rac activation and requires the functions of DOCK1 and DOCK5. Importantly, it is known that the peripheral ruffle formation requires the functions of both DOCK1 and DOCK5 while the dorsal ruffle formation requires the function of DOCK1.
Therefore, the use of various pyridinone compounds in this assay system enables cell-level verification of DOCK1 selectivity.
Wild-type MEFs or MEFs from DOCK1-deficient (D1KO) mouse (obtained by the method disclosed in NPL 2) were suspended in DMEM (with 10% FBS) to a concentration of 2×10^4 cells/mL, and 150 μL of the resulting product was seeded on the glass portion of fibronectin-coated glass-bottom culture dishes.
After 36-hour culture at 37° C., the medium was changed to DMEM (serum free) containing 0.1% BSA, and 12-hour culture was performed to allow the cells to be serum-starved. Subsequently, the medium was changed to 100 μL of DMEM (serum free) containing DMSO in which each pyridinone compound or CPYPP was dissolved at a predetermined concentration, followed by pretreatment for 1 hour. A control was prepared using a culture medium to which DMSO was added alone. In all of the experiments, the final concentration of DMSO was adjusted to 0.2%.
Thereafter, 100 μL of DMEM that was warmed beforehand to 37° C. (serum free, containing 60 ng/mL of PDGF) was added to the above pretreated cells to stimulate the cells, followed by incubation at 37° C. for 7 minutes and further incubation at room temperature for 10 minutes in 150 μL of 4% paraformaldehyde solution to fix the cells. Then, PBS (containing 0.2% Triton X-100) was added to the fixed cells, and a 5-min incubation at room temperature was performed to permeabilize the cellular membranes. Thereafter, the cells were blocked with BSA, and the actin cytoskeleton was stained with Alexa Fluor 546-labeled phalloidin. Using a Zeiss LSM510 meta confocal laser scanning microscope, the number of cells in which peripheral ruffles and dorsal ruffles were formed was observed and counted.

Test [2] addresses T1, DHR-2 domain of DOCK5 (Homo sapiens, UniProt Q9H7D0).
T1 construct: Polypeptide fragments that correspond to the DHR-2 domain of DOCK1, DOCK2, or DOCK5; Histidine-SUMO (N); made in house; host or cells: E. coli Arctic express (DE3)
Briefly: in vitro GEF assay (Bodipy-FL-GTP loading of Rac). In kind it is biochemical. The note with it: FIG. 11. From the text: (§1) Pharmacological Test 1 (In Vitro GEF Assay)
(§2) DOCK1, DOCK2, and DOCK5, which are DOCK-A subfamily members, catalyze the GTP-GDP exchange reaction for Rac via the DHR-2 domain to activate Rac.
(§3) The in vitro GEF assay referred to in this specification used a labeled GTP (Bodipy-FL-GTP, Invitrogen), whose fluorescence intensity increases when bound to Rac.
(§4) Polypeptide fragments that correspond to the DHR-2 domain of DOCK1, DOCK2, or DOCK5 were expressed in E. coli Arctic express (DE3) cells as N-terminal Histidine-SUMO tag-fused recombinant proteins and purified by affinity column chromatography on nickel-NTA columns.
(§5) Rac was expressed in E. coli BL21 (DE3) cells as an N-terminal GST tag-fused recombinant protein and purified by affinity column chromatography on glutathione-Sepharose columns.
(§6) Subsequently, a reaction solution A containing 20 mM of MES-NaOH, 150 mM of NaCl, 10 mM of MgCl2, and 20 μM of GDP, and having an adjusted pH of 7.0 was incubated at room temperature for 30 minutes while being protected from light in the presence of each of the polypeptide fragments (DHR-2 domains) prepared above and each pyridinone compound or CPYPP dissolved at a predetermined concentration in DMSO or DMSO alone (control) to thus prepare GEF pretreated products. In all of the samples, the final DMSO concentration was adjusted to 3%.
(§7) Thereafter, 15 μM of Rac prepared above was added to the reaction solution A and directly allowed to stand on ice for 30 minutes to form a GDP-Rac complex.
(§8) Bodipy-FL-GTP was added to 100 μL of the reaction solution A containing the thus prepared GDP-Rac complex to a concentration of 3.6 μM, followed by equilibration at 30° C. for 2 minutes. After equilibration, 50 μL of the pretreated GEF was added for reaction at 30° C.
(§9) Changes in fluorescence intensity of Bodipy-FL-GTP were monitored during the reaction using an XS-N (Molecular Devices) or an Enspire spectrofluorometer (Perkin Elmer) (excitation wavelength: 488 nm, emission wavelength: 514 nm). The measured values were corrected so that the fluorescence intensity at the time that the reaction was initiated (0 seconds) was 0.
(§10) Then, an approximate curve (hyperbola) was obtained by plotting the calculated correction values on the y axis and the time (t) on the x axis using GraphPad Prism5 (GraphPad software), and the slope at t=0 to 10 seconds was considered to be an initial velocity of guanine nucleotide exchange reaction. The IC50 value was calculated taking the initial reaction velocity of the control, to which only a solvent (DMSO) was added, as 100%.

For test [3], the target named is T2, DHR-2 domain of DOCK1 (Homo sapiens, UniProt Q14185).
T2 construct: Polypeptide fragments that correspond to the DHR-2 domain of DOCK1, DOCK2, or DOCK5; Histidine-SUMO (N); made in house; host or cells: E. coli Arctic express (DE3)
T2 sequence (Q14185 1207-1617 limits assumed): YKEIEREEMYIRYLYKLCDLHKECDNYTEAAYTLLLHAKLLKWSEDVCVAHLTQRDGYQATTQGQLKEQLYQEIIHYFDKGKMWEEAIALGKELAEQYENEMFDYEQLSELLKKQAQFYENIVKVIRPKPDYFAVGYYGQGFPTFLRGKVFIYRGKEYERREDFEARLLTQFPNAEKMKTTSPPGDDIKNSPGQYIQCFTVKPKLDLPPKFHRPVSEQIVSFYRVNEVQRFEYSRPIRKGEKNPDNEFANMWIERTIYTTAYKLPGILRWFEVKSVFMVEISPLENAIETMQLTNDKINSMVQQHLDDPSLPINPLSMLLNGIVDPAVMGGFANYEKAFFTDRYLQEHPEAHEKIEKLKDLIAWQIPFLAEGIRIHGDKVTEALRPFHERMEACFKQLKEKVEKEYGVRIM
Description: in vitro GEF assay (Bodipy-FL-GTP loading of Rac). Type of test: biochemical.
Text: as §1, §2, §3, §4, §5, §6, §7, §8, §9, §10

The target in test [4] is T3, DHR-2 domain of DOCK2 (Homo sapiens, UniProt Q92608).
T3 construct: Polypeptide fragments that correspond to the DHR-2 domain of DOCK1, DOCK2, or DOCK5; Histidine-SUMO (N); made in house; host or cells: E. coli Arctic express (DE3)
T3 sequence (Q92608 1211-1622 limits assumed): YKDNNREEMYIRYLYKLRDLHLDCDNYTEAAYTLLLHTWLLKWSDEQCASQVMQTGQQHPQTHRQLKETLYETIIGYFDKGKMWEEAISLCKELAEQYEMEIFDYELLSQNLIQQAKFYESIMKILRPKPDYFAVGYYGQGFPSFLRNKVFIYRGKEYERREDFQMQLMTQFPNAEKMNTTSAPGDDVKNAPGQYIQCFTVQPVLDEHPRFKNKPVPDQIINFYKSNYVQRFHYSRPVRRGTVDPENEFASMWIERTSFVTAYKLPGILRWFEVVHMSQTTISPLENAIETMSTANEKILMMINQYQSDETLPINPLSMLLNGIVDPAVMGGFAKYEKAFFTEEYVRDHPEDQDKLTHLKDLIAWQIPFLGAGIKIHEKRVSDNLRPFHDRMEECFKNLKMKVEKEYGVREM
Briefly: in vitro GEF assay (Bodipy-FL-GTP loading of Rac). Type of test: biochemical. The settings on record: FIG. 11.
Text: as §1, §2, §3, §4, §5, §6, §7, §8, §9, §10

Test [5] concerns mouse lung carcinoma cell line (3LL). Description: cellular invasion inhibition assay (Matrigel chamber). In kind it is cell-based. The settings on record: 3LL cells, 22 hours, compared to DMSO. As to the method:
Pharmacological Test 2 (Cellular Invasion Inhibition Assay)
Three hundred microliters of a suspension of a mouse lung carcinoma cell line (3LL), a human fibrosarcoma cell line (HT-1080), or a human colon cancer cell line (DLD-1) in DMEM (serum free) was placed in the upper chamber with Matrigel (BD Biosciences) equilibrated with DMEM (serum free) for 120 minutes, while 500 μL of DMEM (with 10% FCS) was placed in the lower chamber. Each pyridinone compound or CPYPP dissolved at a predetermined concentration in DMSO was added to the culture media in both the upper and lower chambers. As a control, DMSO alone was added to the media. In all of the experiments, the final DMSO concentration was adjusted to 0.2%.
After the resulting products were cultured at 37° C. under 5% CO2 for 22 hours, the chambers were removed, and the culture media were removed. […] After staining, the inserts were cut out with a blade to prepare slides, and the cells were counted under an optical microscope.
The results were evaluated based on percent cell invasion (%: Invasion) and percent inhibition (%: inhibition). The percent cell invasion was obtained by converting the number of invading cells under each condition to percentage, taking the number of invading cells in the control, to which DMSO was added alone, as 100%; and the percent inhibition was obtained by deducting the percent cell invasion from 100.

Molecules are shown by their SMILES.

T1 sequence (Q9H7D0 1231-1642 limits assumed): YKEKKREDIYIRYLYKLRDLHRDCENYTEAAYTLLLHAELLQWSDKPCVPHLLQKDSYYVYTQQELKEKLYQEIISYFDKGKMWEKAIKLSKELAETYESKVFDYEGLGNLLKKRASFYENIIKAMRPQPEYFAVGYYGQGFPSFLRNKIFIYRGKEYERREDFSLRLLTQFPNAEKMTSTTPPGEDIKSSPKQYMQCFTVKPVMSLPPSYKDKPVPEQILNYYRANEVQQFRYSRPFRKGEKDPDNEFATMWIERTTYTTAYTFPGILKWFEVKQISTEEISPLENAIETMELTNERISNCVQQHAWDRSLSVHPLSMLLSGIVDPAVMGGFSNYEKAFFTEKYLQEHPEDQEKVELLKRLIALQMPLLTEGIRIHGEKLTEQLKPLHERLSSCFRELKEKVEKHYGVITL

As for `Cc1cc(C(=O)Cn2cc(S(=O)(=O)N3CCCC3)ccc2=O)c(C)n1Cc1ccc(F)cc1` [Compound T-070444, 1-(2-(1-(4-fluorobenzyl)-2,5-dimethyl-1H-pyrrol-3-yl)-2-oxoethyl)-5-(pyrrolidin-1-ylsulfonyl)pyridin-2(1H)-one], in test [1], the dorsal ruffle formation result is reported as “significantly inhibited” and the peripheral ruffle formation entry is recorded as “occurred in a similar manner to that of the control”.

With `O=C1NN(c2ccccc2)C(=O)C1=CC=Cc1ccccc1Cl` [CPYPP, reference compound], the IC50 in test [2] amounted to 14.8 µM; in test [3] (FIG. 11), 20 µM; in test [4], 39 µM. Further, in test [3] (from IC50 values for DOCK1, DOCK2, DOCK5), the “selectivity of GEF inhibition to DOCK1 versus DOCK2 and DOCK5” value is given as “no selectivity”. Also, the dorsal ruffle formation result in test [1] is “inhibited both peripheral ruffle formation and dorsal ruffle formation”. Further, in test [1], the peripheral ruffle formation result was “inhibited both peripheral ruffle formation and dorsal ruffle formation”.

Regarding `O=C(Cn1cc(S(=O)(=O)N2CCCC2)ccc1=O)c1ccc(-c2ccc(C(F)(F)F)cc2)cc1` [TS-16, 1-(2-oxo-2-(4′-(trifluoromethyl)-[1,1′-biphenyl]-4-yl)ethyl)-5-(pyrrolidin-1-ylsulfonyl)pyridin-2(1H)-one], in test [5], the “inhibition of cancer cell (3LL) invasion” value is “significantly excellent inhibitory effect”.
